Values quoted from earlier work, collected in patent US5017613A, “Valproic acid preparations” (Sanofi, S. A., priority 1983, dated 1991).

Conditions: after oral administration

In the case of `CCCC(CCC)C(=O)O` [valproic acid, Dipropylacetic or valproic acid], the “bioavailability in the blood of valproic acid” value is listed as roughly 100%.
